Values belong to the compound of their own block, whether it stands above or below them.
Legend:
rat NaP2b (SLC34A2) = molecular target: T1, rat NaP2b (SLC34A2) (Rattus norvegicus, UniProt Q9JJ09); assay: Inhibition of NaP2b-mediated Pi (33P) uptake in transfected HEK293 cells, rat NaP2b; format: cell-based; settings: HEK293 cells transfected with rat NaP2b, 100 uM phosphate, 0.1 nM to 30 uM, read-out: pIC50 range for rat Nap2b (converted)
T1 construct: host or cells: HEK293
T1 sequence (Q9JJ09 1-695): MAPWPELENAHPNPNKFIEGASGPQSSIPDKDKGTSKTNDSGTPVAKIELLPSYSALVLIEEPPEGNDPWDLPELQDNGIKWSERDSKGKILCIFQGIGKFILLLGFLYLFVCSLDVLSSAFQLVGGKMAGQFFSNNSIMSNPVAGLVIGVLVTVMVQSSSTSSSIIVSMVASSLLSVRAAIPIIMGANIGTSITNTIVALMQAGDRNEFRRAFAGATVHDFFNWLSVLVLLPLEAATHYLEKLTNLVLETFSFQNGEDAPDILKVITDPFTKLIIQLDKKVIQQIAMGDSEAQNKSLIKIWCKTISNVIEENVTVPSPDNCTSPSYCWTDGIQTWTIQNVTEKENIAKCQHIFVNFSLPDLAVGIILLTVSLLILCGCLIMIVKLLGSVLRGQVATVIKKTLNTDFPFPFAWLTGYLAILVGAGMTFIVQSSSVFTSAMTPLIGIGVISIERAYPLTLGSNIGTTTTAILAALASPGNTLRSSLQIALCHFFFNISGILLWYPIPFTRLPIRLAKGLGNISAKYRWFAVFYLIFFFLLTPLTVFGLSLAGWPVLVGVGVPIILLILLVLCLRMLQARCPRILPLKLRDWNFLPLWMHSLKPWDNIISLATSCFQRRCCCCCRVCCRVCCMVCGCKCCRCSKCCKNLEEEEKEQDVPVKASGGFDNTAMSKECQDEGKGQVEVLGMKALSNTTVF
In short: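 HEK293 cells transiently transfected with rat NaP2b; 33P-phosphate uptake measured in sodium or choline buffer (100 uM KH2PO4, PiT-silencing agent, pH 7.4) with compound at twelve concentrations, 0.1 nM–30 uM, in duplicate. Lysed cells counted by scintillation; pIC50 derived from concentration-response.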

[1] = Stability of compounds in simulated gastric fluid (SGF); format: in vitro ADME; settings: simulated gastric fluid (USP, 3 mg/mL pepsin), 1-20 μM, incubation time 6 hr, relative to t=0
Method: (§1) Test compounds were incubated at 1-20 μM in simulated gastric fluid (SGF; standard USP solution with 3 mg/mL pepsin) or simulated intestinal fluid (SIF; standard USP solution with 3 mg/mL pancreatin) for 3 hr or 6 hr. HPLC-UV or HPLC-MS were used to determine test compound levels using peak area %. Results (Table 14) were reported as the percentage of test compound remaining after incubation in a given condition relative to test compound present at t=0 in the same condition.

[2] = Stability of compounds in simulated intestinal fluid (SIF); format: in vitro ADME; settings: simulated intestinal fluid (USP, 3 mg/mL pancreatin), 1-20 μM, incubation time 6 hr, relative to t=0
Method: as §1

[3] = Fecal recovery of orally administered compounds; format: in vivo; settings: rat; oral gavage; feces collected until 48 hr after dosing
Text: In this respect, it is understood that a recovered compound can include the sum of the parent compound and its metabolites derived from the parent compound, e.g., by means of hydrolysis, conjugation, reduction, oxidation, N-alkylation, glucuronidation, acetylation, methylation, sulfation, phosphorylation, or any other modification that adds atoms to or removes atoms from the parent compound, wherein the metabolites are generated via the action of any enzyme or exposure to any physiological environment including, pH, temperature, pressure, or interactions with foodstuffs as they exist in the digestive milieu. Measurement of fecal recovery of compound and metabolites can be carried out using standard methodology. For example, compound can be administered orally at a suitable dose (e.g., 10 mg/kg) and feces are then collected at predetermined times after dosing (e.g., 24 hours, 48 hours, 72 hours). Parent compound and metabolites can be extracted with organic solvent and analyzed quantitatively using mass spectrometry. A mass balance analysis of the parent compound and metabolites (including, parent=M, metabolite 1 [M+16], and metabolite 2 [M+32]) can be used to determine the percent recovery in the feces.
Quantitative determination of test compound level in feces after oral gavage was performed using the same set of animals used to determine test compound concentration in plasma (Example 352). The animals were kept in metabolic cages and feces were collected from the time of dosing until 48 hr after dosing. Upon collection, feces were dried by lyophilization and ground to a visually homogenous powder. Duplicate samples of ground feces from each individual animal were weighed out and extracted using organic solvent. Extracted samples were then diluted into mobile phase and test compound levels were quantitatively determined by LC-MS/MS analysis as described in Example 352 except that the standard curve was prepared in a feces matrix. Extraction conditions were not optimized for individual compounds, and thus may represent a minimal level of recovery.

human NaP2b (SLC34A2) = molecular target: T2, human NaP2b (SLC34A2) (Homo sapiens, UniProt O95436); assay: Inhibition of NaP2b-mediated Pi (33P) uptake in transfected HEK293 cells, human NaP2b; format: cell-based; settings: HEK293 cells transfected with human NaP2b, 100 uM phosphate, 0.1 nM to 30 uM, read-out: pIC50 range for human NaP2b (converted)
T2 construct: host or cells: HEK293
T2 sequence (O95436 1-690): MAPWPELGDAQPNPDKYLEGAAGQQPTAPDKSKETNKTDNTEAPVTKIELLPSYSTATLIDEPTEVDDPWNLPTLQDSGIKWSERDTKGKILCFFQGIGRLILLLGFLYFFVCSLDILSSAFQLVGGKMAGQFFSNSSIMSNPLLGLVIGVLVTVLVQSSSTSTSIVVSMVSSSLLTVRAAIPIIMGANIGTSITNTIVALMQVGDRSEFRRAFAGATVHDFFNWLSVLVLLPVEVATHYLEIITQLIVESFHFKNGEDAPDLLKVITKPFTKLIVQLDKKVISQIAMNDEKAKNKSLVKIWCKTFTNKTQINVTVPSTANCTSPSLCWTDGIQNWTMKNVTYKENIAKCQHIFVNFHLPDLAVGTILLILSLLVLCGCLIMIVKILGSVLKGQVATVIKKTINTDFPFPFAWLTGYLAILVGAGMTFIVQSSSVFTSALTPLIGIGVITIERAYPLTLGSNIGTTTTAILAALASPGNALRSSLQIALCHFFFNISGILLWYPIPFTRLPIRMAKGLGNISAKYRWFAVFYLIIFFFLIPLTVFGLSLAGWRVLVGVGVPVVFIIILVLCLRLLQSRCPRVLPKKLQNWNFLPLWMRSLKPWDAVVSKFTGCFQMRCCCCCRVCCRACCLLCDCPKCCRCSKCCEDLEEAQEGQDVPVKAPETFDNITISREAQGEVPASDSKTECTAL
Method: HEK293 cells were obtained from the American Type Culture collection and propagated per their instructions. Expression clones for rat and human NaP2b (SLC34A2) were obtained from Open Biosystems (Catalog numbers MRN1768-9510282, and MHS1010-99823026, respectively). The sequence of the human protein was mutated to insert a threonine after residue 37, and to introduce a N39D mutation.
The rate of phosphate (Pi) uptake into HEK293 cells was measured using a modification of the method described by Mohrmann et al. (Mohrmann, I., Mohrmann, M., Biber, J., and Murer, H. (1986) Am. J. Phys. 250(3 Pt 1):G323-30.) Transfected HEK293 cells were treated with a pharmacological agent to minimize endogenous PiT-mediated phosphate transport activity, such that the only remaining sodium-dependent phosphate transport activity is that which was bestowed by introduction of the NaP2b genes.
Cells were seeded into 96-well plates at 25,000 cells/well and cultured overnight. Lipofectamine 2000 (Invitrogen) was used to introduce the NaP2b cDNA, and the cells were allowed to approach confluence during a second overnight incubation. […] Cells were then overlayed with either choline uptake buffer or sodium uptake buffer (14 mM Tris, 137 mM sodium chloride, 5.4 mM KCl, 2.8 mM CaCl2, 1.2 mM MgSO4, 100 uM KH2PO4, PiT-silencing agent, 1 mg/mL Bovine Serum Albumin, pH 7.4) containing 6-9 uCi/mL ^33P orthophosphoric acid (Perkin Elmer) and test compound. Each compound was tested at twelve concentrations ranging from 0.1 nM to 30 uM. Assays were run in duplicate.
After incubation for 3-30 minutes at room temperature, assay mixtures were removed, and the cells were washed twice with ice cold stop solution (137 mM sodium chloride, 14 mM Tris, pH 7.4). Cells were lysed by addition of 20 μL 0.1% Tween 80 followed by 100 μL scintillation fluid, and counted using a TopCount (Perkin Elmer).
pIC50 (the negative log of the […]) values of the test compounds were calculated using GraphPad Prism.

Sprague-Dawley rats = assay: In vivo co-dosing in chow (urine P out / P consumed); settings: feed or water; rat; drug in chow, nominal 100 mg/kg/day (mean dose per line in table); urine 24-96 h; read-out: Mean % inhibition Urine Pout/P consumed
Text: Male, 7-week-old Sprague-Dawley rats (Charles-River laboratories international, Hollister, Calif.) were allowed to acclimate for a minimum of 3 days. The experiment was initiated by switching animals to a synthetic diet (0.6% phosphorus and 0.6% calcium, Harlan Teklad TD.84122) for four days. After this time, the animals were placed into metabolic cages for daily monitoring of food and water consumption, as well as urine and fecal collections. Test compounds were incorporated into the powdered diet listed above containing 3% chocolate flavoring (w/w, BioServ #7345) at 1.3 mg test compound per gram of diet to achieve an average daily nominal dose of 100 mg/kg/day. The actual dose received by each animal was later determined by measuring prepared diet consumption and body weight. Urine samples were collected in three daily periods from 24-48, 48-72, and 72-96 hours of drug dosing. […] Phosphorus levels in the urine were determined by anion exchange chromatography using a Dionex ICS-3000 ion chromatography system. […] Elution of urine phosphate ions was monitored via conductivity detector and reported as ppm relative to a standard ion solution containing phosphate. Daily urinary P output relative to the P consumed in the prepared diet for each animal was calculated. […] The differences between the means of control and treated groups were evaluated by t tests. […]

[4] = human absorption; cited from earlier work
[5] = Determination of compound Cmax and AUC in plasma after oral gavage; format: in vivo, rat; settings: Sprague-Dawley rats, actual oral dose 3-15 mg/kg, 0.5-4 h
Method: Sprague-Dawley rats were orally gavaged with test article at a nominal dose of 2.5 or 10 mg/kg and blood was collected at 0.5, 1, 2 and 4 h. Blood samples were processed to plasma using K2EDTA as an anticoaglulant. Plasma samples were treated with acetonitrile containing an internal standard, precipitated proteins removed by centrifugation. Supernatants were analyzed by LC-MS/MS and compound concentrations were determined by interpolation from a standard curve prepared in plasma. All compounds were orally dosed at the dosage shown, and pharmacokinetic parameters determined.

Compound: CN(CCN1CCOCC1)C(=O)c1cccc(C(=O)Nc2ccc(OC3CCC3)cc2-c2cc(C(=O)NCc3cccc(C(F)(F)F)c3)ccn2)c1 [Example 26, N1-(4-Cyclobutoxy-2-(4-((3-(trifluoromethyl)benzyl)carbamoyl)pyridin-2-yl)phenyl)-N3-methyl-N3-(2-morpholinoethyl)isophthalamide]
IC50 (rat NaP2b (SLC34A2)): 1000 to 7940 nM | % remaining, SGF [1]: >80% | % remaining, SIF [2]: 60-80% | % recovered in feces [3]: <20%

IC50 (rat NaP2b (SLC34A2)): < 1000 nM | IC50 (human NaP2b (SLC34A2)): < 1000 nM
Compound: CN(CCN1CCOCC1)C(=O)c1cccc(C(=O)Nc2ccc(N3CCCCC3)cc2-c2cc(C(=O)N[C@H]3CCCc4ccccc43)ccn2)c1 [Example 37, (S)—N1-Methyl-N1-(2-morpholinoethyl)-N3-(4-(piperidin-1-yl)-2-(4-((1,2,3,4-tetrahydronaphthalen-1-yl)carbamoyl)pyridin-2-yl)phenyl)isophthalamide]
inhibition in vivo at 100 mg/kg/day (Sprague-Dawley rats): ≤ 10%

Compound: Cc1cc(=O)n(-c2ccccc2)n1C [phenazone]
% FA [4]: 97%

AUC [5]: <30 ng·h/mL | Cmax [5]: <10 ng/mL
Compound: (S)-2-(5-(diethylamino)-2-(3-(27-oxo-2,5,8,11,14,17,20,23,30,33,36,39-dodecaoxa-42-thia-26-azatritetracontan-43-yl)benzamido)phenyl)-N-(1,2,3,4-tetrahydronaphthalen-1-yl)isonicotinamide [Example 157.1]

— patent US9301951B2 (Ardelyx, Inc., priority 2010, dated 2016)
